Measured values published in ChEMBL document CHEMBL1759859, “Sargachromanols as inhibitors of Na+/K+ ATPase and isocitrate lyase” (Bioorg Med Chem Lett, 2011).
Values after ≈ are worked out from the molar mass of the structure shown. Active and inactive are the calls of the source. No cut-off for these calls is given here.

What was measured:
Aspergillus fumigatus = assay: Antifungal activity against Aspergillus fumigatus HIC 6094 at 100 ug/ml after 2 weeks; assay type: functional, organism-based
Candida albicans = assay: Antifungal activity against Candida albicans ATCC 10231 at 100 ug/ml after 2 weeks; assay type: functional, organism-based
Trichophyton rubrum = assay: Antifungal activity against Trichophyton rubrum IFO 9185 at 100 ug/ml after 2 weeks; assay type: functional, organism-based
[1] = test system: Trichophyton mentagrophytes; assay: Antifungal activity against Trichophyton mentagrophytes IFO 40996 at 100 ug/ml after 2 weeks; assay type: functional, organism-based
Salmonella typhimurium = assay: Antibacterial activity against Salmonella Typhimurium ATCC 14028 after 24 hrs by broth dilution method; assay type: functional, Salmonella enterica subsp. enterica serovar Typhimurium; details: Salmonella enterica, ATCC 14028, 24 h
Proteus vulgaris = assay: Antibacterial activity against Proteus vulgaris ATCC 3851 after 24 hrs by broth dilution method; assay type: functional; details: ATCC 3851, 24 h
Bacillus subtilis = assay: Antibacterial activity against Bacillus subtilis ATCC 6633 after 24 hrs by broth dilution method; assay type: functional; details: ATCC 6633, 24 h
Micrococcus luteus = assay: Antibacterial activity against Micrococcus luteus IFC 12708 after 24 hrs by broth dilution method; assay type: functional; details: IFC 12708, 24 h
[2] = Inhibition of porcine cerebral cortex Na+/K+ ATPase by spectrophotometry; assay type: tissue-based, Sus scrofa
Isocitrate lyase = Isocitrate lyase (Candida albicans, UniProt Q9P8Q7); assay: Inhibition of Candida albicans ICL assessed as formation of glyoxylate phenylhydrazone by spectrophotometry
Sequence of Isocitrate lyase (Q9P8Q7 whole entry): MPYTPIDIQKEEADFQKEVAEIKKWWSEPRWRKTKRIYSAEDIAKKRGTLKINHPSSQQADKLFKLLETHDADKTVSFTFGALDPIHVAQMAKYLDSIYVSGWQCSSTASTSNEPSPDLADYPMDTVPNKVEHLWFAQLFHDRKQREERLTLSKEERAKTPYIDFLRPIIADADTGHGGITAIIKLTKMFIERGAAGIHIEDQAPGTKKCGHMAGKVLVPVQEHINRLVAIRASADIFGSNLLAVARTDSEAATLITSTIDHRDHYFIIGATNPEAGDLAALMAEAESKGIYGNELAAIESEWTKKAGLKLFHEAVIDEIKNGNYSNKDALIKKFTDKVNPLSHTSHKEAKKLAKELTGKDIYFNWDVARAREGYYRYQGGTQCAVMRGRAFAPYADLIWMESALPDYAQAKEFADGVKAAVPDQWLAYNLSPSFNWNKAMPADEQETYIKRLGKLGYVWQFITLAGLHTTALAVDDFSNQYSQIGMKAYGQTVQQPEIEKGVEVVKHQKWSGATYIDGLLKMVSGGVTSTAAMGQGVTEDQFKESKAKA

For `O=C(O)CC[N+](=O)[O-]`, the inhibition (Aspergillus fumigatus) was “inactive”, the inhibition (Candida albicans) was “inactive” and the inhibition (Trichophyton rubrum) was “inactive”. The inhibition [1] was “inactive”.

For `CC1(C)S[C@@H]2[C@H](NC(=O)[C@H](N)c3ccccc3)C(=O)N2[C@H]1C(=O)O` [AMPICILLIN], the inhibition (Aspergillus fumigatus) was “inactive”, the inhibition (Candida albicans) was “inactive” and the MIC (Salmonella typhimurium) was 0.78 µg/mL (≈ 2.23 µM). For the same compound, the inhibition (Trichophyton rubrum) was “inactive”, the MIC (Proteus vulgaris) was 0.78 µg/mL (≈ 2.23 µM) and the MIC (Bacillus subtilis) was 0.78 µg/mL (≈ 2.23 µM). The MIC (Micrococcus luteus) was 0.78 µg/mL (≈ 2.23 µM) and the inhibition [1] was “inactive”.

In the case of `C[C@@H]1O[C@@H](O[C@H]2C[C@@H](O)[C@]3(CO)[C@H]4[C@H](O)C[C@]5(C)[C@@H](C6=CC(=O)OC6)CC[C@]5(O)[C@@H]4CC[C@]3(O)C2)[C@H](O)[C@H](O)[C@H]1O` [OUABAIN], the inhibition (Aspergillus fumigatus) is reported as “inactive”, the inhibition (Candida albicans) is reported as “inactive” and the inhibition (Trichophyton rubrum) is reported as “inactive”. The inhibition [1] was “inactive” and the IC50 [2] was 4.6 µM.

In the case of `CC(C)=C[C@@H](O)[C@@H](O)/C(C)=C/CC/C(C)=C/CC[C@]1(C)CCc2cc(O)cc(C)c2O1` [SARGACHROMANO D], the IC50 (Isocitrate lyase) is reported as greater than 467 µM.

In the case of `CC(C)=C/C(C=O)=C(\C)CCC/C(C)=C/CC[C@]1(C)CCc2cc(O)cc(C)c2O1` [SARGACHROMANO N], the IC50 (Isocitrate lyase) is reported as greater than 487 µM.

For `C/C(C=O)=C\CC/C(C)=C/CC[C@]1(C)CCc2cc(O)cc(C)c2O1` [SARGACHROMANOL A], the IC50 (Isocitrate lyase) was 185 µM.

Compound `C/C(=C\CC/C(C)=C/CC[C@]1(C)CCc2cc(O)cc(C)c2O1)CO` [SARGACHROMANOL B] has an IC50 (Isocitrate lyase) greater than 581 µM.

Work on `CC(C)=CC[C@@H](O)/C(C)=C/CC/C(C)=C/CC[C@]1(C)CCc2cc(O)cc(C)c2O1` [SARGACHROMANOL C] yielded an IC50 (Isocitrate lyase) greater than 485 µM.

With `CC(C)=C[C@H](O)[C@@H](O)/C(C)=C/CC/C(C)=C/CC[C@]1(C)CCc2cc(O)cc(C)c2O1` [SARGACHROMANOL E] the IC50 (Isocitrate lyase) was greater than 467 µM.

`COC(/C(C)=C/CC/C(C)=C/CC[C@]1(C)CCc2cc(O)cc(C)c2O1)[C@H](O)C=C(C)C` (stereo partly drawn) [SARGACHROMANOL F] showed an IC50 (Isocitrate lyase) greater than 452 µM.

With `CC(C)=C[C@@H](O)C(=O)/C(C)=C/CC/C(C)=C/CC[C@]1(C)CCc2cc(O)cc(C)c2O1` [SARGACHROMANOL G] the IC50 (Isocitrate lyase) was greater than 469 µM.

Compound `C/C(=C\CC[C@]1(C)CCc2cc(O)cc(C)c2O1)C/C=C\C(C)C(=O)[C@H](O)CC(C)C` (stereo partly drawn) [SARGACHROMANOL H] has an IC50 (Isocitrate lyase) greater than 467 µM.

Work on `CC(C)=C[C@@H](O)C(=O)C(C)CCC/C(C)=C/CC[C@]1(C)CCc2cc(O)cc(C)c2O1` (stereo partly drawn) [SARGACHROMANOL I] yielded an IC50 (Isocitrate lyase) greater than 467 µM.

`C/C(=C\CC[C@]1(C)CCc2cc(O)cc(C)c2O1)CCCC(C)C(=O)[C@@H](O)CC(C)C` (stereo partly drawn) [SARGACHROMANOL J] showed an IC50 (Isocitrate lyase) greater than 464 µM.

For `CC(C)=CC(=O)[C@@H](O)/C(C)=C/CC/C(C)=C/CC[C@]1(C)CCc2cc(O)cc(C)c2O1` [SARGACHROMANOL K], the IC50 (Isocitrate lyase) was greater than 469 µM.

In the case of `CC(C)=CC(CO)/C(C)=C/CC/C(C)=C/CC[C@]1(C)CCc2cc(O)cc(C)c2O1` (stereo partly drawn) [SARGACHROMANOL L], the IC50 (Isocitrate lyase) is reported as 117 µM.

`CC(C)=C/C(C=O)=C(/C)CCC/C(C)=C/CC[C@]1(C)CCc2cc(O)cc(C)c2O1` [SARGACHROMANOL M] showed an IC50 (Isocitrate lyase) of 173 µM.

Work on `CC(C)=CC(C(=O)O)/C(C)=C/CC/C(C)=C/CC[C@]1(C)CCc2cc(O)cc(C)c2O1` (stereo partly drawn) [SARGACHROMANOL O] yielded an IC50 (Isocitrate lyase) greater than 469 µM.

`CC(C)=C[C@@H]1C(=O)C(C)=C[C@H]1C/C(C)=C/CC[C@]1(C)CCc2cc(O)cc(C)c2O1` [SARGACHROMANOL P] gave an IC50 (Isocitrate lyase) of 149 µM.
